Measurements: article PMC7229161 (Scientific Reports, 2020)
Entries after “also recorded” stand apart in the source; their conditions may differ.

Tests used:
cTRPV1 = cTRPV1 (Gallus gallus, UniProt Q8QFN9); test: cell-based; format: cell-based, chicken (Gallus gallus)
rTRPV1 = rTRPV1 (Rattus norvegicus, UniProt O35433); format: cell-based
3XHA-cTRPV1-A578K = format: cell-based, chicken (Gallus gallus)
cTRPV1-A578E = cTRPV1-A578E (Gallus gallus, UniProt Q8QFN9, A578E); test: cell-based; design: species or system chicken (Gallus gallus)
rTRPV1-E570K = molecular target: T1, rTRPV1-E570K (Rattus norvegicus, UniProt O35433, E570K); format: cell-based
T1 construct: expressed in transfected cells; host or cells: HEK293T

rTRPV1-E570A = molecular target: T2, rTRPV1-E570A (Rattus norvegicus, UniProt O35433, E570A); format: cell-based
T2 construct: expressed in transfected cells; host or cells: HEK293T

rTRPV1-E570Q = molecular target: T3, rTRPV1-E570Q (Rattus norvegicus, UniProt O35433, E570Q); format: cell-based
T3 construct: expressed in transfected cells; host or cells: HEK293T

3XHA-cTRPV1-A578Q = format: cell-based, chicken (Gallus gallus)
[1] = system: Ch6 rat-chicken TRPV1 chimera (rat N-terminus, M1-R428); format: cell-based
[2] = system: Ch15 rat-chicken TRPV1 chimera (rat C-terminus, N687-K838); format: cell-based
3XHA-cTRPV1-A578P = format: cell-based, chicken (Gallus gallus)
rTRPV1-E570P = molecular target: T4, rTRPV1-E570P (Rattus norvegicus, UniProt O35433, E570P); format: cell-based
T4 construct: expressed in transfected cells; host or cells: HEK293T
T4 sequence (O35433 whole entry E570P): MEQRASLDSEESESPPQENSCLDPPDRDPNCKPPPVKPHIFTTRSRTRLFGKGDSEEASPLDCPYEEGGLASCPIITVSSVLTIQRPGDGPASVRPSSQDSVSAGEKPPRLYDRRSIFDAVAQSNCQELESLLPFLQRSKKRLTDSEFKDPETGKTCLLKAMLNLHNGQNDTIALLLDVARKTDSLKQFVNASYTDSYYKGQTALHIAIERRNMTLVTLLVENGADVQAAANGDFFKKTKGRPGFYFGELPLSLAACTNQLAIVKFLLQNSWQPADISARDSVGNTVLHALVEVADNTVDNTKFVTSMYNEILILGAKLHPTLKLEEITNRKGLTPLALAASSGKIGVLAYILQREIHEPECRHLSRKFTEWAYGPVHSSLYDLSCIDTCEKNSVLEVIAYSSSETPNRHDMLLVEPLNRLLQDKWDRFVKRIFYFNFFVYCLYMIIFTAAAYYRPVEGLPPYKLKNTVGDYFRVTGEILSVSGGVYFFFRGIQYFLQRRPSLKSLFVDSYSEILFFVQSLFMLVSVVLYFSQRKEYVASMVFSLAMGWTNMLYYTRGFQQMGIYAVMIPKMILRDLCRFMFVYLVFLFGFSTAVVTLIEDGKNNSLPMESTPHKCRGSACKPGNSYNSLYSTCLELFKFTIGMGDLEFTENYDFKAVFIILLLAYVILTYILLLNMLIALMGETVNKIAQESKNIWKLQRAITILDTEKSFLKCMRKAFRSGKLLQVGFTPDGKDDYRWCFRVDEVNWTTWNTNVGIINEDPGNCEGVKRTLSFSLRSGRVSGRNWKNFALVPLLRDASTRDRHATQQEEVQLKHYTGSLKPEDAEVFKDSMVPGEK

Chain of rTRPV1 (O35433 whole entry): as the sequence (O35433 whole entry E570P) above, with P570E counted along it
Chain of cTRPV1 (Q8QFN9 1-843): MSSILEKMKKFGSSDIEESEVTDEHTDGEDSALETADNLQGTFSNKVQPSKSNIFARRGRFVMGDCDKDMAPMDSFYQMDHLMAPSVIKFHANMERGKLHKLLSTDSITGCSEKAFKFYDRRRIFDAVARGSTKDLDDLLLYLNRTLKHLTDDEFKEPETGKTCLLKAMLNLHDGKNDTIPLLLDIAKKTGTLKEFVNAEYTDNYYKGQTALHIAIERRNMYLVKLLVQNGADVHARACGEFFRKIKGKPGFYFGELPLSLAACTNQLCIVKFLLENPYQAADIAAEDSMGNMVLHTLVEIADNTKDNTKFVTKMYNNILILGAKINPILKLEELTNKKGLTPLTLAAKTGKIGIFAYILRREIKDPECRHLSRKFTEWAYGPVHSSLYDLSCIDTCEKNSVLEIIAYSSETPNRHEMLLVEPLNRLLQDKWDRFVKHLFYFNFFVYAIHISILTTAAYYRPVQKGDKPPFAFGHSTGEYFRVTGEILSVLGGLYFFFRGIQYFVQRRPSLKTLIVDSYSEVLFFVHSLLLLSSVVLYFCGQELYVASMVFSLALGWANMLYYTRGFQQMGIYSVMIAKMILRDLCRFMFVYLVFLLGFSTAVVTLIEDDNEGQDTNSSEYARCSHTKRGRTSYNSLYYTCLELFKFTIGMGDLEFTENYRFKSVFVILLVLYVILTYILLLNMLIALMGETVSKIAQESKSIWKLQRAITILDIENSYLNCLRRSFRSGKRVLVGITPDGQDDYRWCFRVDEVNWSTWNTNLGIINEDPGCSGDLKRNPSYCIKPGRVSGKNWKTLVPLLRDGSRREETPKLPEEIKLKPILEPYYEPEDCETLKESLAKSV
Chain of cTRPV1-A578E (Q8QFN9 1-843 A578E): as the sequence (Q8QFN9 1-843) above, with A578E counted along it
T1 sequence (O35433 whole entry E570K): as the sequence (O35433 whole entry E570P) above, with P570K counted along it
T3 sequence (O35433 whole entry E570Q): as the sequence (O35433 whole entry E570P) above, with P570Q counted along it
T2 sequence (O35433 whole entry E570A): as the sequence (O35433 whole entry E570P) above, with P570A counted along it

Q: ruthenium red was tested. Which “block of cocktail-elicited ion flow” value (cTRPV1) did it give?
A: sufficient to block most ions

Q: What about the “block of cocktail-elicited extracellular Ca2+ entry” value (rTRPV1) of the same compound?
A: could be blocked

Q: How did the capsaicin analog-induced activation (3XHA-cTRPV1-A578K) turn out when `CNCCOc1ccc(CNC(=O)CCCC/C=C/C(C)C)cc1OC` [Cap-EMA, O-(N-methylaminoethyl) capsaicin] was run?
A: slightly activated

Q: And the capsaicin analog-induced activation (rTRPV1)?
A: strong response

Q: `COc1cc(CNC(=O)CCCC/C=C/C(C)C)ccc1OCCN` [Cap-EA, O-aminoethyl capsaicin] was tested. Which capsaicin analog-induced activation (cTRPV1-A578E) did it give?
A: successfully activated; also recorded: strongly activated

Q: And the capsaicin analog-induced activation (3XHA-cTRPV1-A578K)?
A: partially activated

Q: What about the capsaicin analog-induced activation (rTRPV1) of the same compound?
A: strong response

Q: For `COc1cc(CNC(=O)CCCC/C=C/C(C)C)ccc1O` [capsaicin], which EC50 (cTRPV1-A578E) is on record?
A: 7.2 ± 9.4 µM

Q: And the “increase of response to 100 μM capsaicin, A578E mutant vs wildtype cTRPV1” value (cTRPV1-A578E)?
A: 5 fold

Q: What about the “vanilloid responsiveness (30 μM capsaicin-induced activation normalized to cocktail-induced maximum channel opening)” value (cTRPV1-A578E) of the same compound?
A: greatest capsaicin sensitivity

Q: What about the “vanilloid responsiveness (30 μM capsaicin-induced activation normalized to cocktail-induced maximum channel opening)” value (3XHA-cTRPV1-A578K) of the same compound?
A: greatest capsaicin sensitivity

Q: And the “responsiveness to 300 nM capsaicin normalized to protein expression level” value (rTRPV1-E570K)?
A: exhibited responsiveness to 300 nM capsaicin, albeit much weaker than wildtype

Q: What about the “capsaicin-induced responses vs wildtype rTRPV1” value (rTRPV1-E570A) of the same compound?
A: drastically decreased

Q: What about the “responsiveness to 300 nM capsaicin normalized to protein expression level” value (rTRPV1-E570Q) of the same compound?
A: exhibited responsiveness to 300 nM capsaicin, albeit much weaker than wildtype

Q: What about the “vanilloid responsiveness (30 μM capsaicin-induced activation normalized to cocktail-induced maximum channel opening)” value (3XHA-cTRPV1-A578Q) of the same compound?
A: greatest capsaicin sensitivity

Q: And the “capsaicin sensitivity of chimera vs cTRPV1” value [1]?
A: limited improvement in capsaicin sensitivity

Q: What about the “capsaicin sensitivity of chimera” value [2] of the same compound?
A: no capsaicin sensitivity

Q: What about the “vanilloid responsiveness (30 μM capsaicin-induced activation normalized to cocktail-induced maximum channel opening)” value (3XHA-cTRPV1-A578P) of the same compound?
A: greatest capsaicin sensitivity

Q: And the EC50 (cTRPV1)?
A: > 30 µM

Q: And the “channel activation (Ca2+ signal)” value (cTRPV1)?
A: the response was relatively weak for cTRPV1; also recorded: limited response

Q: What about the “channel activation (Ca2+ signal)” value (rTRPV1) of the same compound?
A: activated rTRPV1

Q: What about the “responsiveness to 300 nM capsaicin normalized to protein expression level” value (rTRPV1-E570P) of the same compound?
A: reduced capsaicin sensitivity

Q: How did the zingerone-induced activation (cTRPV1-A578E) turn out when `COc1cc(CCC(C)=O)ccc1O` [zingerone] was run?
A: did not activate

Q: What about the zingerone-induced activation (3XHA-cTRPV1-A578K) of the same compound?
A: did not activate

Q: And the zingerone-induced activation (3XHA-cTRPV1-A578Q)?
A: did not activate

Q: And the zingerone-induced activation (3XHA-cTRPV1-A578P)?
A: did not activate

Q: And the “Zingerone-induced activity relative to capsaicin” value (rTRPV1)?
A: 35.9 ± 5.0%

Q: And the zingerone-induced activation (rTRPV1)?
A: activated rTRPV1
